Assay results from patent publication US9945845B2, “Methods of screening using amphibians” (priority 2009, dated 2018).
“Also recorded” adds a separate entry of the source. Counter-ions that a name gives are not always drawn. Like-named read-outs stand apart in the source and are kept apart here.

How the values were obtained:
LEC [1] = experiment: cells; type: cell-based, human; conditions: for activity at 1 µM: Homo sapiens
Method: (§1) Human umbilical vein endothelial cells (HUVEC) were purchased from PromoCell. […] HUVEC and LEC were cultured in endothelial basal medium EBM (Cambrex) supplemented with 20% fetal bovine serum (Invitrogen), antibiotic-antimycotics (100 U/ml penicillin, 100 μg/ml streptomycin, 250 ng/ml amphotericin; Invitrogen). 2 mM L-glutamine (Invitrogen), 10 μg/ml hydrocortisone (Fluka) and 25 μg/ml N^6,2′-O-dibutyryladenosine 3′,5′-cyclic monophosphate sodium salt (Fluka) for up to eleven passages.
(§2) The effect of the selected chemicals on the formation of tube-like structures was performed as follows. […] After overnight incubation at 37° C. the treated cell cultures were fixed with 4% paraformaldehyde. Each chemical treatment was performed in triplicate and the experiment was repeated at least three times. Three representative images of hotspots with tube-like structures were taken per well using a digital camera (AxioCam MRm, Carl Zeiss) mounted on an inverted microscope (Axiovert 200M, Carl Zeiss). The length of the tube-like structures was measured using the IPLab software (BD Biosciences). For each experimental condition, results are represented as average total tube length (μm) per area (three image fields).
(§3) The effects of the selected compounds on endothelial tube formation was assessed after over treatment of LEC and HUVEC cultures at a compound concentration of 1 μM in 0.1% DMSO. The length of the tube-like structures was measured using the IPLab software.

HUVEC [2] = experiment: HUVEC tube formation assay; type: cell-based, human; conditions: for activity at 1 µM: Homo sapiens, HUVEC
Method: as §1, §2, §3

LEC [3] = experiment: LEC cell proliferation assay; type: cell-based, human; conditions: for activity at 10 µM: Homo sapiens, 48 h
Method: as §1
(§4) The intensity of fluorescence, which is proportional to the number of viable cells, was measured using a microplate reader (SpectraMax Gemini EM; Molecular Devices). The chemical treatments were performed in five replicates.
(§5) The cell proliferation assays were performed by treating the endothelial cell cultures with compounds at a screening dose of 10 μM in 0.1% DMSO for 48 hours (FIG. 6a; Table 10).

HUVEC [4] = experiment: HUVEC cell proliferation assay; type: cell-based, human; conditions: for activity at 10 µM: Homo sapiens, HUVEC, 48 h
Method: as §1, §4, §5

[5] = tested on: blood vessel development and/or lymphangiogenesis in Xenopus embryos; type: in vivo, Xenopus laevis; conditions: for lymph vessel development phenotype (vegfr3 expression, in words): 20 μM from stage 31, fixed at stage 42; for ALH phenotype: anterior lymph heart; for ALS phenotype: anterior lymph sac; for PLV phenotype: posterior lymph vessels
Method: All chemicals were purchased from Sigma and 10-mM stock solutions in DMSO were prepared. Chemicals were used at a final concentration of 20 μM in screening medium to treat homozygous albino Xenopus embryos, which lack natural pigmentation. Chemical treatments of embryos (n=7 per well) was initiated at stage 31 (37 hpf) and terminated at stages 35/36 (50 hpf) or 42 (80 hpf). Embryos were fixed in 4% paraformaldehyde and processed for whole mount in situ hybridization.
Where albino embryos were used, the bleaching step was omitted. Semi-automated whole mount in situ hybridizations were performed using the Biolane HTI machine (Hölle & Hüttner AG, Germany). […] Images were captured using a stereomicroscope (SteREO Lumar V12; Carl Zeiss) equipped with a digital camera (AxioCam Color; Carl Zeiss). Composite figures were organized and labeled using Adobe Photoshop CS2 and Adobe Illustrator CS software.
Edema formation or late-stage lethality may result from excretory system defects, (cardio)vascular and/or lymphatic vascular pathologies. […] Embryos were fixed for in situ hybridization either at stage 35/36 to analyze vasculogenesis and intersomitic vein angiogenesis defects or at stage 42 to evaluate possible defects in lymph vessel development (FIGS. 3-5).

Xenopus embryos = conditions: for Lethality: — = no stage of lethality given; for Type of edema Ventral: ‡ = edemas also detected in the gut; for Onset (NF): onset of edema; for Embr. phen.: embryonic phenotype in the primary screen
Method in brief: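 Stage 31 (37 hpf) Xenopus embryos, five per well, exposed to 20 µM compound in 1% DMSO at 23 °C for 4 days. Edema, lethality and other external phenotypes were scored daily by two investigators at stages 39, 41, 45 and 47.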

[6] = 1 μM in 0.1% DMSO, overnight, read-out: LEC tube formation
[7] = 1 μM in 0.1% DMSO, read-out: LEC tube formation (tube length)
[8] = 1 μM in 0.1% DMSO, overnight, read-out: HUVEC tube formation
[9] = 1 μM in 0.1% DMSO, read-out: HUVEC tube formation (tube length)
[10] = 10 μM in 0.1% DMSO, 48 hours, read-out: LEC proliferation
[11] = 10 μM in 0.1% DMSO, 48 hours, read-out: HUVEC proliferation
[12] = 20 μM from stage 31, fixed at stage 35/36
[13] = intersomitic vessels, Xenopus embryos
[14] = posterior cardinal vein, Xenopus embryos
[15] = vitelline vein network, Xenopus embryos
[16] = compounds causing edema, 20 μM, 1% DMSO, treatment from stage 31, scored to stage 47
[17] = 20 μM, 1% DMSO, treatment from stage 31, Nieuwkoop & Faber stage
[18] = compounds causing lethality, 20 μM, 1% DMSO, treatment from stage 31, Nieuwkoop & Faber stage

Compound	activity at 1 µM (LEC [1]; [6]) [%]	activity at 1 µM (LEC [1]; [7]) [%]	activity at 1 µM (HUVEC [2]; [8]) [%]	activity at 1 µM (HUVEC [2]; [9]) [%]	activity at 10 µM (LEC [3]; [10]) [%]	activity at 10 µM (HUVEC [4]; [11]) [%]	blood vessel development phenotype (apj expression, in words) [5, 12]	lymph vessel development phenotype (vegfr3 expression, in words) [5]	ALH phenotype ([5]; Xenopus embryos)	ALS phenotype ([5]; Xenopus embryos)	ISV phenotype [5, 13]	PCV phenotype [5, 14]	PLV phenotype ([5]; Xenopus embryos)	VVN phenotype [5, 15]	Lethality (NF) (Xenopus embryos; [16])	Type of edema Pericordial (Xenopus embryos; embryonic stage)	Lethality (Xenopus embryos; embryonic stage)	Type of edema Ventral (Xenopus embryos; embryonic stage)	Onset (NF) (Xenopus embryos; [17])	LEC proliferation (LEC [3]; 10 μM in 0.1% DMSO, 48 hours)	further results
CCn1c(=O)c2[nH]c(-c3ccccc3)nc2n(CC)c1=O [1,3-Diethyl-8-phenylxanthine]	85 to 115	90	115 to 150	123	85 to 115	85 to 115	hyperplasia of the VVN, while ISV angiogenesis occurred unaffected	lymphangiogenesis was largely suppressed	stunted	stunted	normal	normal	hypoplastic	hyperplastic	45 NF	41/42	45 embryonic stages according to Nieuwkoop and Faber (NF)	41/42	41/42		
CCCCOC(=O)NS(=O)(=O)c1sc(CC(C)C)cc1-c1ccc(Cn2c(CC)nc3c(C)cc(C)nc32)cc1 [L-162,313]							potent inhibitors of developmental angiogenesis				impaired	normal		hypoplastic						O (O, inactive or marginal effects (85-115% of control);)	LEC tube formation (LEC [1]; 1 μM in 0.1% DMSO, overnight): − (−, moderate inhibition (50-85% of control):); HUVEC tube formation (HUVEC [2]; 1 μM in 0.1% DMSO, overnight): − (−, moderate inhibition (50-85% of control):); HUVEC proliferation (HUVEC [4]; 10 μM in 0.1% DMSO, 48 hours): + (+, moderate promotion (>115-150% of control).); Lymphatic phenotype ([5]; Xenopus embryos): normal; Lethality (NF) (Xenopus embryos; [18]): 45 NF; Embr. phen. (Xenopus embryos): LET
COc1cc([C@@H]2c3cc4c(cc3[C@H](O)[C@H]3COC(=O)[C@H]23)OCO4)cc(OC)c1OC [Podophyllotoxin]											impaired	hypoplastic		hypoplastic	41/42	39/40	41/42		39/40		activity at 1 µM (LEC [1]; read-out: LEC tube formation): < 50%; activity at 1 µM (LEC [1]; read-out: LEC tube formation (tube length)): < 35%; activity at 1 µM (HUVEC [2]; read-out: HUVEC tube formation): < 50%; activity at 1 µM (HUVEC [2]; read-out: HUVEC tube formation (tube length)): < 35%; activity at 10 µM (LEC [3]; read-out: LEC proliferation, 10 μM in 0.1% DMSO, 48 hours): 65 to 82%; activity at 10 µM (HUVEC [4]; read-out: HUVEC proliferation, 10 μM in 0.1% DMSO, 48 hours): 65 to 82%
Cc1cc(C)c(C=C2C(=O)Nc3ccccc32)[nH]1 [SU 5416, 1,3-Dihydro-3-[(3,5-dimethyl-1H-pyrrol-2-yl)methylene]-2H-indol-2-one]	50 to 85		85 to 115		85 to 115	85 to 115															effect on LEC tube formation (in words) (LEC [1]; 1 μM in 0.1% DMSO): preferentially blocked tube formation in LEC rather than HUVEC cultures; ISV phenotype ([5]; in vivo): impaired; PCV phenotype ([5]; in vivo): normal; VVN phenotype ([5]; in vivo): hypoplastic; blood vessel development phenotype (apj expression, in words) ([5]; in vivo): block ISV outgrowth; edema or other phenotype in compound-treated Xenopus embryos/tadpoles (in words) (Xenopus embryos; 20 μM, 1% DMSO, treatment from stage 31): causing lethality; scored in the phenotypic Xenopus screens (Xenopus embryos; 20 μM, known antiangiogenic compounds): active; Lethality (NF) (Xenopus embryos; [18]): 37/38
Nc1ncnc2c1c(-c1ccc(Oc3ccccc3)cc1)cn2C1CCCC1 [7-Cyclopentyl-5-(4-phenoxy)phenyl-7H-pyrrolo[2,3-d]pyrimidin-4-ylamine]							interfered with angiogenic ISV sprouting but not with VVN assembly	lymphangiogenesis was strongly suppressed	impaired	impaired	stunted	normal	hypoplastic	normal	45 NF	41/42	45 embryonic stages according to Nieuwkoop and Faber (NF)		41/42	O (O, inactive or marginal effects (85-115% of control);)	LEC tube formation (LEC [1]; 1 μM in 0.1% DMSO, overnight): − − (− −, strong inhibition (<50% of control);); HUVEC tube formation (HUVEC [2]; 1 μM in 0.1% DMSO, overnight): − − (− −, strong inhibition (<50% of control);); HUVEC proliferation (HUVEC [4]; 10 μM in 0.1% DMSO, 48 hours): O (O, inactive or marginal effects (85-115% of control);); Embr. phen. (Xenopus embryos): EDE; Type of edema Pronephric (Xenopus embryos; embryonic stage): 41/42
COC(=O)C1=C(C)NC(C)=C(C(=O)OCCN(C)Cc2ccccc2)C1c1cccc([N+](=O)[O-])c1 (stereo not shown) [Nicardipine hydrochloride]	85 to 115	85 to 115	85 to 115	85 to 115	85 to 115	85 to 115			dysplastic	dysplastic			hypoplastic		45 NF	41/42	45 embryonic stages according to Nieuwkoop and Faber (NF)	41/42	41/42		lymph vessel development phenotype (vegfr3 expression, in words) ([5]; hydrochloride): inhibiting preferentially lymphatic vascular development; also recorded: discontinuatous, dysplastic lymphatic vessels; Blood vessel phenotype ([5]; Xenopus embryos): normal
CC(C)COC(=O)OCN1C(=O)CN(CCN2CC(=O)N(COC(=O)OCC(C)C)C(=O)C2)CC1=O [Sobuzoxane, 4,4′-(1,2-Ethanediyl)bis(1-isobutoxycarbonyloxymethyl-2,6-piperazinedione)]	85 to 115	85 to 115	85 to 115	85 to 115	115 to 150	115 to 150		discontinuatous, dysplastic lymphatic vessels	dysplastic	dysplastic			hypoplastic		47 NF		47 embryonic stages according to Nieuwkoop and Faber (NF)	45 embryonic stages according to Nieuwkoop and Faber (NF)	41/42	+ (+, moderate promotion (>115-150% of control).)	HUVEC proliferation (HUVEC [4]; 10 μM in 0.1% DMSO, 48 hours): + (+, moderate promotion (>115-150% of control).); Blood vessel phenotype ([5]; Xenopus embryos): normal; Type of edema Proctodeal (Xenopus embryos; embryonic stage): 45 embryonic stages according to Nieuwkoop and Faber (NF); Type of edema Pronephric (Xenopus embryos; embryonic stage): 41/42; Type of edema Periocular (Xenopus embryos; embryonic stage, * = causing bulging eyes, # = bilateral, causing narrow-set eyes): 45* embryonic stages according to Nieuwkoop and Faber (NF)
